{"source": "patent US20080318892A1", "about": "“METHODS AND FORMULATIONS FOR PROTECTING CELLS, AND FOR TREATING DISEASES AND CONDITIONS BY OPTIMIZING THE INTRACELLULAR CONCENTRATION OF NAD” (priority 2007, published 2008)", "key": {"SIRT1": {"test_system": "SIRT1", "assay": "SIRT1 deacetylase activity in live SMCs (Fluor de Lys-SIRT1 substrate, TSA-independent)", "type": "cell-based, human", "conditions": "SMCs overexpressing Nampt; p=0.03, n=4", "description": "In vivo assessment of SIRT1 deacetylase activity. Cell-based assessment of SIRT1-like enzymatic activity was performed using the Fluor de lys-SIRT1 substrate (Biomol, Plymouth Meeting, Pa.), as previously described (de Boer, 2006). SMCs in phenol-red free M199 with 5% FBS were incubated for 2 h with 5 μM TSA followed by addition of the fluorogenic substrate for 4 h. Signal was quantified by spectrofluorimetry (Wallac, Wellesley, Mass.) and normalized to total protein content.\nAssessment of SIRT1 Deacetylase Activity. SIRT1 deacetylase activity was quantified in live cells as previously reported (de Boer et al, 2006). SMCs cultured in phenol red-free M199 were incubated without serum for 2 h with 1 μM trichostatin A (Sigma, St. Louis, Mo., USA) followed by addition of 25 μM Fluor-de-Lys-SIRT1 fluorogenic substrate (Biomol, Plymouth Meeting, Pa., USA) for 4 h. Media containing fluorogenic substrate and reaction product was incubated with an equal volume of SIRT1 assay buffer containing 2 mM nicotinamide and developer (Biomol, Plymouth Meeting, Pa., USA). Signal was quantified by spectrofluorometry (Wallac VICTOR-1420, PerkinElmer Life Science, Waltham, Mass., USA) and normalized to total protein content"}, "[1]": {"test_system": "microvessels invested by human SMC's", "assay": "Human-mouse chimeric angiogenesis in vivo (matrigel implants)", "parameters": "species or system SCID mice", "conditions": "matrigel implants with PBEF-overexpressing SMC's, 8 days; p<0.05 vs vector", "description": "Human-Mouse Chimeric Angiogenesis in vivo was measured. HITC6 SMCs in M199 with 10% FBS and fibroblast growth factor-2 (FGF-2) were mixed with an equal volume of growth factor-reduced matrigel (BD Discovery Labware) yielding final concentrations of 5×10^5 cells/ml and 250 ng/ml FGF-2. The cell-matrigel suspension (500 μl) was subcutaneously injected into the abdomen of mice with severe combined immunodeficiency syndrome (SCID). After 8 days, implants were harvested, fixed for 8 h in Tris-buffered zinc (32), and paraffin-embedded tissues were sectioned at 5 μm. […] Tissue was then incubated with rabbit anti-GFP (1:200, BD Clontech, Palo Alto, Calif.) and bound primary antibody detected with alkaline phosphatase-conjugated goat anti-rabbit secondary antibody and visualized with red alkaline phosphatase substrate (Vector). […]\nHuman-Mouse Chimeric Angiogenesis in vivo was measured. […] Tissue was then incubated with rabbit anti-GFP (1:200, BD Clontech, Palo Alto, Calif.) and bound primary antibody detected with alkaline phosphatase-conjugated goat anti-rabbit secondary antibody and visualized with red alkaline phosphatase substrate (Vector). […]"}, "HITC6 SMCs": {"test_system": "HITC6 SMCs", "assay": "Senescence-associated beta-galactosidase activity / senescence-free survival", "type": "cell-based, human", "description": "Senescence-associated β-Galatosidase Activity Assay. SMCs on glass coverslips at approximately 70% confluence were fixed in 2% formaldehyde/0.2% glutaraldehyde in PBS for 3 minutes and incubated with X-gal-containing reaction mixture, as previously described (Dimri, 1995). Washed cells were stained with Hoechst 33258 (2.5 μg/ml) and the proportion of senescence-associated β-galactosidase (SA β-Gal)-positive cells quantified from 10 microscope fields of view (Olympus BX51, ×20 objective, approximately 1200 cells). Senescence-free survival was determined using Kaplan-Meier analysis of survival vs. replicative age.\nSenescence-associated Beta-galactosidase Activity. Senescence-associated beta-galactosidase (SA-β-gal) activity was determined as previously described (Dimri et al, 1995). Briefly, SMCs were fixed in PBS containing 2% formaldehyde/0.2% glutaraldehyde for 3 min at room temperature. Fixed cells were then incubated for 4-6 h at 37° C. with SA-β-gal stain solution containing 150 mM NaCl, 2 mM MgCl, 40 mM citrate, 5 mM potassium ferrocyanide, 5 mM potassium ferricyanide, and 1 mg/ml of 5-bromo-4-chloro-3-indolyl-β-D-galactopyranoside (X-gal) (Invitrogen, Carlsbad, Calif., USA), at pH 6.0. SMCs were counterstained with 2.5 μg/ml Hoechst 33258 to detect cell nuclei. The proportion of SA-β-gal activity positive cells was quantified using light and fluorescence microscopy (Olympus BX51, Center Valley, Pa., USA)."}, "Nampt": {"target": "T1, Nampt (Homo sapiens, UniProt P43490)", "T1 construct": "endogenous in cells; host or cells: human vascular SMCs (primary and HITC6), whole cell lysates", "T1 sequence (P43490 whole entry)": "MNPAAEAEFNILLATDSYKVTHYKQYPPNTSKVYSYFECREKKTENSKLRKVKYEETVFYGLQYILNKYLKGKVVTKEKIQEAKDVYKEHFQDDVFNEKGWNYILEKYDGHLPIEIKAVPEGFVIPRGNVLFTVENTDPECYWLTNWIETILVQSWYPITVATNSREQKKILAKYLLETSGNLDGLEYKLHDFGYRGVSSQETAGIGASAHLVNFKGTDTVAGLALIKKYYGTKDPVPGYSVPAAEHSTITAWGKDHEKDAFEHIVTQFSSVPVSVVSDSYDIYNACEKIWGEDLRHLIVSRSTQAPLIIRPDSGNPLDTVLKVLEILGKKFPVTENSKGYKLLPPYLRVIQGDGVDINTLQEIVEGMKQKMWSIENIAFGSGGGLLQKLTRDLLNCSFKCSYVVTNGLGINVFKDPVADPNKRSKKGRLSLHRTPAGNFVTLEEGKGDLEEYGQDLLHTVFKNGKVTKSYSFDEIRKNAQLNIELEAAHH", "assay": "Nicotinamide phosphoribosyltransferase (Nampt/PBEF) activity in SMC lysates, [14C]nicotinamide to NMN", "type": "cell-based", "conditions": "human Nampt cDNA by retrovirus", "description": "Nicotinamide Phosphoribosyltransferase Activity. […] Labelled acetone-precipitable nicotinamide mononucleotide was quantified by scintillation counting.\nAssessment of Nicotinamide Phosphoribosyltransferase Activity. […] Briefly, SMCs were lysed in buffer containing 10 mM NaH2PO4/Na2HPO4, at pH 8.8. Cell lysates were incubated with 0.5 μM [carbonyl-^14C]nicotinamide and 0.5 mM phosphoribosylpyrophosphate for 4 h on a rotating rocker at 37° C."}}, "data": [{"substance": "PBEF: 52-55 kD protein, rate-limiting enzyme for NAD+ biosynthesis from nicotinamide; tested by retroviral cDNA overexpression in cells", "values": [{"measurement": "increase in SIRT1 activity", "setting": "SIRT1", "value": "86±4", "unit": "%"}, {"measurement": "proportion of microvessels invested by one or more human SMC's", "setting": "[1]", "value": "17.8±2.5", "unit": "%"}, {"measurement": "senescence-free survival (Kaplan-Meier) vs vector-infected cells", "setting": "HITC6 SMCs; PBEF-overexpressing SMCs, p<0.0001", "value": "markedly extended"}, {"measurement": "reduction in senescent SMCs", "setting": "HITC6 SMCs; late-passage (37th) PBEF-overexpressing SMCs, p=0.003", "value": "19±2", "unit": "%"}, {"measurement": "increase in Nampt activity in stably transduced SMCs", "setting": "Nampt", "value": "7.1±3.1", "unit": "fold"}]}]}
